Residue numbers refer to the chain shown, from its start.
Tests used:
wild-type C57BL/6J mice [1] = assay: Hypothermia (Tb by telemetry) after ip dosing; format: in vivo, mouse; conditions: for Tb (° C.): average from dosing to 60 min, mean±SD
Method: (§1) Compounds were dosed ip. Tb and activity were measured by telemetry and the averages from dosing to 60 min were calculated. […] Data are for the highest dose used and are mean±SD from 3 to 22 mice/group (usually 5-7). P values are unpaired t-Test vs vehicle-treated controls assayed simultaneously. Vehicle data are mean±SD from all (n=83) vehicle treated mice.

[2] = Plasma protein binding at 10 μM; format: in vitro ADME, mouse; conditions: unbound percent ± standard deviation
Method: (§2) Plasma protein binding in human plasma, mouse plasma, and rat plasma was determined. Verapamil and warfarin served as positive controls. The results are expressed as unbound percent±standard deviation.

[3] = Plasma protein binding at 10 μM; format: in vitro ADME, human; conditions: unbound percent ± standard deviation
Method: as §2

wild-type C57BL/6J mice [4] = assay: Locomotor activity by telemetry after ip dosing; format: in vivo, mouse; conditions: average from dosing to 60 min, mean±SD
Method: as §1

mA3AR [5] = molecular target: T1, mA3AR (Mus musculus, UniProt Q61618); assay: Guanine nucleotide ([35S]GTPγS) binding assay; format: biochemical; conditions: effect of 10 μM test compound as % of 10 μM 16
T1 sequence (Q61618 1-319): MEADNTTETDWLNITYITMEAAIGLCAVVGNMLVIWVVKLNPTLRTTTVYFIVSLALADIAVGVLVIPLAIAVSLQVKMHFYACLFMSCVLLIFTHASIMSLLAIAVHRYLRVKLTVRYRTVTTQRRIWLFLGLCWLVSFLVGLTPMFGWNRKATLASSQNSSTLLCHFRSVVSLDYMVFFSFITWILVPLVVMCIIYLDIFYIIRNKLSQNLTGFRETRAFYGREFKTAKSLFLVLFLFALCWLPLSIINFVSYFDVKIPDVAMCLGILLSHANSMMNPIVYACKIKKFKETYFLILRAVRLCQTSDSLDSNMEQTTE
Method: (§3) cLogP was calculated using ChemDraw Professional, v. 16.0. Binding selectivity for mA1Ar is expressed in terms of fold, compared to mA3AR (Data from Table 1).

[6] = Plasma protein binding at 10 μM; format: in vitro ADME, rat; conditions: unbound percent ± standard deviation
Method: as §2

hA3AR = molecular target: T2, hA3AR (Homo sapiens, UniProt P0DMS8); assay: Radioligand binding in membranes of CHO cells expressing hA3AR; conditions: read-out: A3AR % inhibition or Ki; for Ki: (h)
T2 construct: expressed in transfected cells; host or cells: CHO
T2 sequence (P0DMS8 1-318): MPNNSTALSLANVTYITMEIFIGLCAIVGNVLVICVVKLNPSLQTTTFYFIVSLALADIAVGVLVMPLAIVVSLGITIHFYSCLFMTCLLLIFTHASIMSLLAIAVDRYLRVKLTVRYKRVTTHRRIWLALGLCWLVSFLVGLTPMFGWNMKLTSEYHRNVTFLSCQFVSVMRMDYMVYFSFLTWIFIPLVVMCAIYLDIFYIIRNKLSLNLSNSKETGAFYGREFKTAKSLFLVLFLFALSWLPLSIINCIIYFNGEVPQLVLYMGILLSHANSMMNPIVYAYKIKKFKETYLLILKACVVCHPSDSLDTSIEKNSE

[7] = system: off-target receptors (PDSP); assay: Off-target interactions determined by the PDSP, whole screen; format: binding, human; conditions: no off-target interaction listed
rA1AR = molecular target: T3, rA1AR (Rattus norvegicus, UniProt P25099); assay: Adenosine receptor binding, rA1AR; conditions: (r), read-out: A1AR % inhibition or Ki (converted)
T3 sequence (P25099 1-326): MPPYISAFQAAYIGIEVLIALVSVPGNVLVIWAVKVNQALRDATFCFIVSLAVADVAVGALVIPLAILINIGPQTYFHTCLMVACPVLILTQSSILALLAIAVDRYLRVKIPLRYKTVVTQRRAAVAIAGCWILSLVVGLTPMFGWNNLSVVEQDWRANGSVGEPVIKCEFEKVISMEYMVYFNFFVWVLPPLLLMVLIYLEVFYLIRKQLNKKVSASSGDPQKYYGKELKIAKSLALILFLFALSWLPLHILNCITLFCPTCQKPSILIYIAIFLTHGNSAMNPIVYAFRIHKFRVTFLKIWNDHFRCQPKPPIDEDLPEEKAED

serotonin receptor 5HT2C = molecular target: T4, serotonin receptor 5HT2C (Homo sapiens, UniProt P28335); assay: Off-target interaction determined by the PDSP; format: binding; conditions: read-out: Off-target, receptor (h, unless noted) (Ki, μM): 5HT2C
T4 sequence (P28335 33-458): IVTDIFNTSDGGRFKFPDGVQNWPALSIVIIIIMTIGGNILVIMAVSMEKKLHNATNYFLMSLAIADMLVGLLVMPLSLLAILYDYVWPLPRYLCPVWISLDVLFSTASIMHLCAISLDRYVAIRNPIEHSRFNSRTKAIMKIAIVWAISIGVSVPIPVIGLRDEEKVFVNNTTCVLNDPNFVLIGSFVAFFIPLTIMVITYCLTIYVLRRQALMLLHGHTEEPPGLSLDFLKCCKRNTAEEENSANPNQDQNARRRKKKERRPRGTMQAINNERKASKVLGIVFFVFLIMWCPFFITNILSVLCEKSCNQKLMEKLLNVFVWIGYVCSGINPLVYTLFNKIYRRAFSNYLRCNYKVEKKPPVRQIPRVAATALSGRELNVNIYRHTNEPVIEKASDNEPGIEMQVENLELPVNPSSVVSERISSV

sigma receptor σ2 = sigma receptor σ2 (UniProt Q5BJF2); assay: Off-target interaction determined by the PDSP; format: binding, human; conditions: read-out: Off-target, receptor (h, unless noted) (Ki, μM): σ2
hA1AR = molecular target: T5, hA1AR (Homo sapiens, UniProt P30542); assay: Radioligand binding in membranes of CHO cells expressing hA1AR, [3H]N6-R-phenylisopropyladenosine; conditions: (h); Ki; read-out: A1AR % inhibition or Ki
T5 construct: expressed in transfected cells; host or cells: CHO
T5 sequence (P30542 1-326): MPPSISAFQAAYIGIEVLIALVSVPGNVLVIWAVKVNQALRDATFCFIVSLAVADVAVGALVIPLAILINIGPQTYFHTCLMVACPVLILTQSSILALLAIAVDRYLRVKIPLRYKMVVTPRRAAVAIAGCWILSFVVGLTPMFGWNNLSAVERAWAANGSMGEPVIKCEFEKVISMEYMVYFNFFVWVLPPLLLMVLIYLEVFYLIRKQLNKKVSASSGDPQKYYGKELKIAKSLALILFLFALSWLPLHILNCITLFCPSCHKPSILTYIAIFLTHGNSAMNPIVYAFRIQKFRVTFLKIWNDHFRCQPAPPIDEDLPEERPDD

mA3AR [8] = molecular target: T1, mA3AR; assay: Adenosine receptor binding, mA3AR
serotonin receptor 5HT2B = serotonin receptor 5HT2B (Homo sapiens, UniProt P41595); assay: Off-target interaction determined by the PDSP; format: binding; conditions: read-out: Off-target, receptor (h, unless noted) (Ki, μM): 5HT2B
mA1AR [9] = molecular target: T6, mA1AR (Mus musculus, UniProt Q60612); assay: Adenosine receptor binding, mA1AR; conditions: for Ki: (m), read-out: A1AR % inhibition or Ki (converted)
T6 sequence (Q60612 1-326): T3 sequence (P25099 1-326) with V151E, D155A, R157I, D316E, L319I, E325D

hA2AAR = molecular target: T7, hA2AAR (Homo sapiens, UniProt P29274); assay: Radioligand binding in membranes of HEK293 cells expressing hA2AAR; conditions: read-out: A2AAR % inhibition
T7 construct: expressed in transfected cells; host or cells: HEK293

[10] = molecular target: dopamine transporter (DAT) (Homo sapiens, UniProt Q01959); assay: Off-target interaction determined by the PDSP; format: binding; conditions: read-out: Off-target, receptor (h, unless noted) (Ki, μM): DAT
mice = assay: Tail suspension test, immobility time; format: in vivo, mouse; conditions: 3, 10 or 20 mg/kg i.p.
Method: 1 hour after administration of compounds, the mice were individually suspended by their tails for 6 minutes, and the average amount of time the mice were immobile was determined. […]

[11] = Stability in simulated gastric fluid; format: physicochemical; conditions: pH 1.60, 37° C., after 120 min
mA2AAR = mA2AAR (Mus musculus, UniProt Q60613); assay: Adenosine receptor binding, mA2AAR; conditions: read-out: A2AAR % inhibition (converted)
mA1AR [12] = molecular target: T6, mA1AR; assay: Guanine nucleotide ([35S]GTPγS) binding assay; format: biochemical
Method: as §3

T7 sequence (P29274 whole entry): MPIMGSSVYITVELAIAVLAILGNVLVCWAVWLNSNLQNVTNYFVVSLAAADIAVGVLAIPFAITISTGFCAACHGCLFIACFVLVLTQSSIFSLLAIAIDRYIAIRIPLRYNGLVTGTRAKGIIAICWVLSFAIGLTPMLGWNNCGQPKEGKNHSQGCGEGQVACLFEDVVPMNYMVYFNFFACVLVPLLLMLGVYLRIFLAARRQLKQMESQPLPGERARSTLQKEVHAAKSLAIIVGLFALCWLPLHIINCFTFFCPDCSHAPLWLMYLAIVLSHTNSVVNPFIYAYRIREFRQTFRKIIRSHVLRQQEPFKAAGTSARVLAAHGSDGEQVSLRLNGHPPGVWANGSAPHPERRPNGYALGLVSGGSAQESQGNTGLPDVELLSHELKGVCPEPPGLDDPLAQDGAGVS
serotonin receptor 5HT2B, sequence (P41595 whole entry): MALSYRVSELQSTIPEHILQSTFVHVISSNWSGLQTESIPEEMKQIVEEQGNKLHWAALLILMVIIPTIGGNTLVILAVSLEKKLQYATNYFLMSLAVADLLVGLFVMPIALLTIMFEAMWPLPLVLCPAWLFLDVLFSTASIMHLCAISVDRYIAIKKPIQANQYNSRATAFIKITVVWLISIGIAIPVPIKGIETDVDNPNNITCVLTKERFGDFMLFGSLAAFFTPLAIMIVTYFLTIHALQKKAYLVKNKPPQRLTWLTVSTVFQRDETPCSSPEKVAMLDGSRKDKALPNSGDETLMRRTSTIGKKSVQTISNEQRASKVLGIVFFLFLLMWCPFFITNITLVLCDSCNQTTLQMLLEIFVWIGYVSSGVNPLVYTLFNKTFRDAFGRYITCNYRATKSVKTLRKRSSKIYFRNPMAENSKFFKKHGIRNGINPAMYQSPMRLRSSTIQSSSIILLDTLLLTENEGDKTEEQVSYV
dopamine transporter (DAT), sequence (Q01959 whole entry): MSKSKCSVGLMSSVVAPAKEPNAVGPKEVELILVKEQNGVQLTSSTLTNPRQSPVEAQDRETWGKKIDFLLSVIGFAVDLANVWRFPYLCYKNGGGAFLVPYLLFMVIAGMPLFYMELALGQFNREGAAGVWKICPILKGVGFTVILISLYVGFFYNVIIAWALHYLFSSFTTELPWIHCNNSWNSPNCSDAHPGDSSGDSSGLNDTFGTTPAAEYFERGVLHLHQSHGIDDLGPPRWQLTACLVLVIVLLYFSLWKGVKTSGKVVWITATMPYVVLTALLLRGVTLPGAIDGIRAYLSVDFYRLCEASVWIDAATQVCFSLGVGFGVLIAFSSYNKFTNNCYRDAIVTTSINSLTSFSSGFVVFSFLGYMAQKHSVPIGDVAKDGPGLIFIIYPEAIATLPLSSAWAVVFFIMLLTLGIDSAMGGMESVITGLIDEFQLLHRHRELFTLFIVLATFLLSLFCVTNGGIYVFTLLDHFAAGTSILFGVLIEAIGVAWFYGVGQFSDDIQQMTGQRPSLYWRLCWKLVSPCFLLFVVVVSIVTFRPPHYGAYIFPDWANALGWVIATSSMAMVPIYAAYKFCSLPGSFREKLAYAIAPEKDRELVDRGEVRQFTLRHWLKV
mA2AAR, sequence (Q60613 whole entry): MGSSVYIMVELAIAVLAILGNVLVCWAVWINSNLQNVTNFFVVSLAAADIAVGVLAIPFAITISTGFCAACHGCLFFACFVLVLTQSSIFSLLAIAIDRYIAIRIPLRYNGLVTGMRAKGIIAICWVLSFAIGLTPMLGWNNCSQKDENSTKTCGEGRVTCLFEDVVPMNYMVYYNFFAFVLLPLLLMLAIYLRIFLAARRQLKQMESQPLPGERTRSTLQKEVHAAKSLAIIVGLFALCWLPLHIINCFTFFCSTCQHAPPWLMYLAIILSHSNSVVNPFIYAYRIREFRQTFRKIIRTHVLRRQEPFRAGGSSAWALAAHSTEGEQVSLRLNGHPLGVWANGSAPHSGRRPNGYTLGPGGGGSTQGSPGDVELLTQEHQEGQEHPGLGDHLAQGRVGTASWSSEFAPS

| SMILES | Off-target, receptor (h, unless noted) [7] | mouse, % free [2] [%] | human, % free [3] [%] | Emax at 10 µM (mA3AR [5]) [%] | rat, % free [6] [%] | Ki (hA3AR) [nM] | Ki (hA1AR) [nM] | inhibition at 10 µM (hA2AAR) [%] | further results |
| --- | --- | --- | --- | --- | --- | --- | --- | --- | --- |
| OC[C@H]1O[C@@H](n2cnc3c(NC(C4CCC4)C4CCC4)ncnc32)[C@H](O)C1O (stereo in doubt) [Compound 9, (2R,3R,4R,5R)-2-(6-((Dicyclobutylmethyl)amino)-9H-purin-9-yl)-5-(hydroxymethyl)tetrahydrofuran-3,4-diol] |  | 20.6 ± 1.2 | 6.05 ± 1.60 | 70 ± 9 | 14.6 ± 0.01 | 10600 |  |  | ARs causing hypothermia (wild-type C57BL/6J mice [1]; 3 mg/kg ip, WT and AR-KO mice (FIG. 2)): A1AR selective; Tb (° C.) (wild-type C57BL/6J mice [1]; 3 mg/kg ip): 33.0 ± 0.7 °C; Activity (counts) (wild-type C57BL/6J mice [4]; 3 mg/kg ip): 6.6 ± 2.3 counts |
| NC(=O)c1ncn([C@H]2[C@H](O)[C@H](O)[C@]3(CO)C[C@H]23)n1 [Compound 40, 1-((1S,2R,3S,4R,5R)-3,4-Dihydroxy-5-(hydroxymethyl)bicyclo[3.1.0]hexan-2-yl)-1H-1,2,4-triazole-3-carboxamide] |  | > 80 | > 80 | 31 ± 3 | > 80 |  | 495 ± 35 | 11 ± 3 | Ki (serotonin receptor 5HT2C): 2.35 µM; Ki (sigma receptor σ2): 2.09 µM; Tb (° C.) (wild-type C57BL/6J mice [1]; 10 mg/kg ip): 35.7 ± 0.7 °C; inhibition at 10 µM (mA3AR [8]; read-out: A3AR % inhibition or Ki): 47 ± 2%; Activity (counts) (wild-type C57BL/6J mice [4]; 10 mg/kg ip): 19.1 ± 5.3 counts; Ki (serotonin receptor 5HT2B): 1.91 µM; selectivity ratio (mA1AR [9]): 400; Ki (mA1AR [9]): 25.2 ± 2.8 nM; inhibition at 10 µM (hA3AR): 41 ± 6%; Ki [10]: 6.61 µM |
| O[C@@H]1[C@H](O)[C@@H]2C[C@@H]2[C@H]1n1cnc2c(NC(C3CC3)C3CC3)nc(Cl)nc21 [MRS5474, reference compound] |  |  |  |  |  |  |  |  | average immobility times versus the control group of mice (mice; 1 hour after administration): lower than the average immobility times exhibited by the control group of mice; average immobility times versus mice treated with fluoxetine (mice; fluoxetine 10 mg/kg): approximately twice longer; initial amount present in simulated gastric fluid [11]: 51% |
| O[C@H]1[C@H](n2cnc3c(N[C@H]4C[C@H]5CC[C@@H]4C5)nc(Cl)nc32)[C@H]2C[C@@]2(CCl)[C@H]1O [Compound 31, (1S,2R,3S,4R,5S)-4-(6-(((1R,2S,4S)-Bicyclo[2.2.1]heptan-2-yl)amino)-2-chloro-9H-purin-9-yl)-1-(chloromethyl)bicyclo[3.1.0]hexane-2,3-diol] | none | 2.95 ± 0.84 | 4.04 ± 0.60 | 50 ± 11 | 2.53 ± 0.45 | 456 ± 201 | 44.8 ± 1.3 | 54 ± 8 | inhibition at 10 µM (mA2AAR): 15%; Tb (° C.) (wild-type C57BL/6J mice [1]; 3 mg/kg ip): 36.6 ± 0.5 °C; Ki (mA3AR [8]; (m), Ki, read-out: A3AR % inhibition or Ki (converted)): 503 nM; Activity (counts) (wild-type C57BL/6J mice [4]; 3 mg/kg ip): 16.8 ± 3.6 counts; Emax at 10 µM (mA1AR [12]): 123 ± 16%; Ki (mA1AR [9]): 1.86 nM; Binding selectivity for mA1AR (mA1AR [9]; compared to mA3AR): (270) fold |

Second part, led by results:

| Off-target, receptor (h, unless noted) [7] | SMILES | mouse, % free [2] [%] | human, % free [3] [%] | Emax at 10 µM (mA3AR [5]) [%] | rat, % free [6] [%] | Ki (hA3AR) [nM] | Ki (hA1AR) [nM] | inhibition at 10 µM (hA2AAR) [%] | further results |
| --- | --- | --- | --- | --- | --- | --- | --- | --- | --- |
| none | Nc1nc(Cl)nc2c1ncn2[C@H]1[C@H](O)[C@H](O)[C@]2(CO)C[C@H]12 [Compound 21] |  |  |  |  |  |  |  | Ki (rA1AR): 273 nM |
| none | OC[C@@]12C[C@@H]1[C@@H](n1cnc3c(N[C@H]4C[C@H]5CC[C@@H]4C5)nc(Cl)cc31)[C@H](O)[C@@H]2O [Compound 30, (1R,2R,3S,4R,5S)-4-(4-(((1R,2S,4S)-Bicyclo[2.2.1]heptan-2-yl)amino)-6-chloro-1H-imidazo[4,5-c]pyridin-1-yl)-1-(hydroxymethyl)bicyclo[3.1.0]hexane-2,3-diol] |  |  |  |  | 145 ± 74 | 240 ± 19 | 29 ± 13 |  |
| none | CNC(=O)[C@H]1O[C@@H](n2cnc3c(N)ncnc32)[C@H](O)[C@@H]1O [Compound 15, reference compound] |  |  |  |  | 24.4 | 36.7 |  | Ki (hA2AAR; (h), values without % sign (Ki)): 466 ± 95 nM; Ki (rA1AR): 84 nM |

— patent US12378248B2 (The United States of America, as represented by the …, priority 2018, dated 2025)
